Test results: US8394398B2 (Abbott Laboratories, priority 1997, dated 2013)
pIC50: −log10 of the molar value.

Assays:
[1] = pharmacokinetics after a single intravenous dose in cynomolgus monkey; format: in vivo; details: single 2.5 mg/kg intravenous dose, blood, n=3
human monocytes = experiment: cytokine production by LPS-stimulated human monocytes (ELISA); format: cell-based; details: for MCP-1 production by human monocytes in vitro: FIG. 10; for production of TNFα and IL-6 by human monocytes: FIGS. 10 and 11; for Maximal Inhibitory Activity, IL-6 / Maximal Inhibitory Activity, MCP-1 / Maximal Inhibitory Activity, TNF: Monocytes, 24 hours
Experimental: (§1) Experiments were performed to determine the effects of zotarolimus, sirolimus and dexamethasone on the production of TNFα, IL-6 and MCP-1 by activated human monocytes In addition to monocytes and macrophages two other key cell types are involved in the etiology of restenosis, arterial smooth muscle and endothelial cells. These cells are activated and produce cytokines in response to TNFα. […] The activation of cytokine production by human coronary artery smooth muscle and endothelial cells following TNFα treatment was determined by measuring interleukine-8 (IL-8), MCP-1 and IL-6 production. As shown by the results of the experiments described below, the ability of these compounds to inhibit the production of cytokines supports their use in combination as anti-restenotic agents since these cytokines play a role in the development of restenosis. […] After 24 hours, the supernatants were carefully collected and TNFα, IL-6 and MCP-1 levels determined by ELISA. Primary cultures of human coronary artery endothelial and smooth muscle cells were obtained from Cambrex and maintained as described by the vendor. […] After 24 hours the supernatants were removed and replaced with media containing TNFα (5 ng/ml) in the presence and absence of various concentrations of zotarolimus, dexamethasone or sirolimus. The cells were incubated for 24 hours and the supernatants carefully removed and frozen until measurement. Cytokine levels were measured in the supernatants by sandwich ELISA.

[2] = tested on: human coronary artery endothelial cells (hCaEC); experiment: cytokine production by TNFα-treated human coronary artery endothelial cells (ELISA); format: cell-based; details: TNFα (5 ng/ml), 24 hours
Experimental: as §1

[3] = tested on: human coronary artery smooth muscle cells (hCaSMC); experiment: cytokine production by TNFα-treated human coronary artery smooth muscle cells (ELISA); format: cell-based; details: TNFα (5 ng/ml), 24 hours; for Maximal Inhibitory Activity, IL-6 / Maximal Inhibitory Activity, Il-8 / Maximal Inhibitory Activity, MCP-1: hCaSMC
Experimental: as §1

[4] = tested on: human coronary artery smooth muscle cells (hCaSMC); experiment: 3H-thymidine uptake proliferation assay, hCaSMC; format: cell-based; details: for effect on the antiproliferative activity of zotarolimus in hCaSMC: FIG. 12
Experimental: Experiments were performed to investigate interactions between zotarolimus and the corticosteroid dexamethasone. The effect of dexamethasone on the antiproliferative activity of zotarolimus in human coronary artery smooth muscle ([…]) and endothelial […] determined using an in vitro proliferation assay. The proliferation and migration of vascular smooth muscle cells into the vascular neointima is a characteristic pathologic response seen in restenotic lesions (A. Lafont and P. Libby, The smooth muscle cell: sinner or saint in restenosis and the acute coronary syndromes? […] As a result, in vitro assays which specifically measure the antiproliferative activity of candidate anti-restenotic compounds on human coronary artery smooth muscle and endothelial cells should predict potential anti-restenotic activity in vivo. The tritium incorporation assay is an accurate and sensitive method used in the art to determine cell number and proliferation. Compounds or combinations of compounds which attenuate growth factor-mediated human coronary artery smooth muscle cell […]) proliferation, as measured by the tritium incorporation assay in vitro, are candidate anti-restenotic agents. […] Cell proliferation was monitored by following incorporation of ^3H-thymidine into newly synthesized DNA of cells stimulated by serum and growth factors. Exponentially growing […] were seeded into 96-well flat bottom tissue culture plates at 5,000 cells/well (10,000 cells/well for […]). The cells were allowed to attach overnight. The growth medium was removed the following day and cells were washed twice with unsupplemented (basal) medium to remove traces of serum and growth factors. Basal medium (200 μl) was added to each well and the cells incubated in medium lacking growth factors and serum to starve and synchronize them in the G0 state. After starvation (48 hours for […] and 39 hours for […]) in medium lacking serum and growth factors, the cells were replenished with 200 μl supplemented medium in the absence or presence of drugs at the desired concentrations. […] After a 72-hour incubation period, 25 μl (1 μCi/well) of ^3H-thymidine (Amersham Biosciences) were added to each well. The cells were incubated at 37° C. for 16-18 hours to allow incorporation of ^3H-thymidine into newly synthesized DNA and the cells harvested onto 96-well plates containing bonded glass fiber filters using a cell harvester (Harvester 9600, TOMTEC). […] Controls included medium only, starved cells and cells in complete medium. Drug activity was established by determining the inhibition of ^3H-thymidine incorporation into newly synthesized DNA relative to cells grown in complete medium. […] The final IC50s are means of the 3-4 experiments. In these experiments, the x-axis represents the concentration of the drug being varied. For most of these curves that is zotarolimus alone and in combination with a fixed concentration of dexamethasone. Each graph contains a dexamethasone alone curve and a zotarolimus alone curve. The set of curves in each graph is generated by adding dexamethasone at a fixed concentration (1, 5, 10 or 25 nM) to various concentrations of zotarolimus (0, 0.04, 0.08, 0.8, 4, 8, 40 nM). Each curve represents the dose-response of zotarolimus (whose concentration is given on the x-axis) in the presence of the fixed concentration of dexamethasone given in the legend). […] The concentration eliciting a specific antiproliferative effect was determined using a 4-parameter equation (Equation 1). […]

[5] = tested on: human coronary artery endothelial cells (hCaEC); experiment: 3H-thymidine uptake proliferation assay, hCaEC; format: cell-based
[6] = accelerated in vitro elution from PC-1036 coated stents; format: physicochemical

Molecule	AUC [1] [ng·h/mL]	MCP-1 production by human monocytes in vitro (human monocytes)	production of TNFα and IL-6 by human monocytes (human monocytes)	Maximal Inhibitory Activity, IL-6 (human monocytes)	Maximal Inhibitory Activity, MCP-1 (human monocytes)	Maximal Inhibitory Activity, TNF (human monocytes)	Maximal Inhibitory Activity, IL-6 [2]	Maximal Inhibitory Activity, Il-8 [2]	Maximal Inhibitory Activity, MCP-1 [2]	Maximal Inhibitory Activity, IL-6 [3]	Maximal Inhibitory Activity, Il-8 [3]	Maximal Inhibitory Activity, MCP-1 [3]	other results
40-epi-N-[2′-pyridone]-rapamycin [Example 2-pyridone]	2.55												
C[C@@H]1C[C@H]2[C@@H]3CCC4=CC(=O)C=C[C@]4(C)[C@@]3(F)[C@@H](O)C[C@]2(C)[C@@]1(O)C(=O)CO [Dexamethasone]		dose-dependently inhibit MCP-1 production	potently blocks the production of TNFα and IL-6	+++ (+++ indicates maximal inhibitory activity of 75-100% of control)	+ (+ indicates maximal inhibitory activity of 50-75% of control)	+++ (+++ indicates maximal inhibitory activity of 75-100% of control)	− (− indicates maximal inhibitory activity less than 50% of control)	− (− indicates maximal inhibitory activity less than 50% of control)	− (− indicates maximal inhibitory activity less than 50% of control)	+ (+ indicates maximal inhibitory activity of 50-75% of control)	+ (+ indicates maximal inhibitory activity of 50-75% of control)	+ (+ indicates maximal inhibitory activity of 50-75% of control)	block of hCaSMC IL-6 production [3]: 65.7%; block of hCaSMC IL-8 production [3]: 68.4%; block of hCaSMC MCP-1 production [3]: 57.2%; pIC50 ([4]; Homo sapiens, 3 h, read-out: hCaSMC IC50 Mean ± SEM): 8.03; inhibition of hCaSMC proliferation ([4]; dexamethasone alone at or above 10 nM): N.D.* Not detectable: Concentrations of dexamethasone alone at or above 10 nM inhibit proliferation by greater than 50% preventing calculation of zotarolimus IC50's in these experiments.; effect on proliferation of hCaEC ([5]; FIG. 13): does not affect the proliferation of hCaEC; pIC50 ([5]; Homo sapiens, Endothelial cell, 3 h, read-out: hCaEC IC50 Mean ± SEM): < 5.00; burst release at the beginning of elution ([6]; stent with 10 μg/mm each drug, 5 μg/mm PC-1036 topcoat, 10 mM acetate buffer pH 4.0, 1% Solutol HS 15, 37° C., 24-hour profile): slightly larger burst release at the beginning than zotarolimus; effect on the elution profile of zotarolimus ([6]; zotarolimus alone vs in the presence of dexamethasone, same conditions): little effect on the elution profile of zotarolimus
COC1CC2CCC(C)C(O)(O2)C(=O)C(=O)N2CCCCC2C(=O)OC(C(C)CC2CCC(n3ccc(=O)cc3)C(OC)C2)CC(=O)C(C)C=C(C)C(O)C(OC)C(=O)C(C)CC(C)C=CC=CC=C1C (stereo not drawn) [Example 4-pyridone, 40-epi-N-[4′-pyridone]-rapamycin]	5.59												
CO[C@H]1C[C@@H]2CC[C@@H](C)[C@@](O)(O2)C(=O)C(=O)N2CCCC[C@H]2C(=O)O[C@H]([C@H](C)C[C@@H]2CC[C@@H](O)[C@H](OC)C2)CC(=O)[C@H](C)/C=C(\C)[C@@H](O)[C@@H](OC)C(=O)[C@H](C)C[C@H](C)/C=C/C=C/C=C/1C [Rapamycin]		dose-dependently inhibit MCP-1 production	not demonstrated	− (− indicates maximal inhibitory activity less than 50% of control)	+++ (+++ indicates maximal inhibitory activity of 75-100% of control)	− (− indicates maximal inhibitory activity less than 50% of control)	− (− indicates maximal inhibitory activity less than 50% of control)	− (− indicates maximal inhibitory activity less than 50% of control)	− (− indicates maximal inhibitory activity less than 50% of control)	− (− indicates maximal inhibitory activity less than 50% of control)	− (− indicates maximal inhibitory activity less than 50% of control)	− (− indicates maximal inhibitory activity less than 50% of control)	
C=CC[C@@H]1/C=C(\C)C[C@H](C)C[C@H](OC)[C@H]2O[C@@](O)(C(=O)C(=O)N3CCCC[C@H]3C(=O)O[C@H](/C(C)=C/[C@@H]3CC[C@@H](O)[C@H](OC)C3)[C@H](C)[C@@H](O)CC1=O)[C@H](C)C[C@@H]2OC [tacrolimus]													effect on the antiproliferative activity of zotarolimus in hCaSMC ([4]; tacrolimus 100 nM): increased the IC50 of zotarolimus; effect on the antiproliferative activity of zotarolimus in hCaSMC ([4]; tacrolimus 250 nM or greater, zotarolimus 4 nM): completely blocked the activity of zotarolimus
